Measurements: ChEMBL document CHEMBL6096629, “Indolo[3,2-c]isoquinoline Hydroxamic Acid Derivatives as Novel Orally Topoisomerase-Histone Deacetylase Dual Inhibitors for NSCLC Therapy” (J Med Chem, 2025)

Tests used:
Histone deacetylase 1 = Histone deacetylase 1 (Homo sapiens, UniProt Q13547); assay: Inhibition of HDAC1 (unknown origin)
PC-3 [1] = assay: Antiproliferative activity against human PC-3 cells incubated for 24 hrs by MTT assay; format: functional, cell-based; conditions: PC-3, 24 h
HCT-116 [2] = assay: cells; format: functional, cell-based; conditions: Homo sapiens, HCT-116, 24 h
Description: Antiproliferative activity against human HCT-116 cells incubated for 24 hrs by MTT assay

NCI-H2228 [3] = assay: Antiproliferative activity against human NCI-H2228 cells incubated for 24 hrs by MTT assay; format: functional, cell-based; conditions: NCI-H2228, 24 h
Huh-7 [4] = assay: Antiproliferative activity against human Huh-7 cells incubated for 24 hrs by MTT assay; format: functional, cell-based; conditions: Huh-7, 24 h
MCF7 [5] = assay: cells; format: functional, cell-based; conditions: Homo sapiens, MCF7, 24 h
Description: Antiproliferative activity against human MCF7 cells incubated for 24 hrs by MTT assay

MDA-MB-231 [6] = assay: cells; format: functional, cell-based; conditions: Homo sapiens, MDA-MB-231, 24 h
Histone deacetylase 2 = Histone deacetylase 2 (Homo sapiens, UniProt Q92769); assay: Inhibition of HDAC2 (unknown origin)
Histone deacetylase 2, sequence (Q92769 whole entry): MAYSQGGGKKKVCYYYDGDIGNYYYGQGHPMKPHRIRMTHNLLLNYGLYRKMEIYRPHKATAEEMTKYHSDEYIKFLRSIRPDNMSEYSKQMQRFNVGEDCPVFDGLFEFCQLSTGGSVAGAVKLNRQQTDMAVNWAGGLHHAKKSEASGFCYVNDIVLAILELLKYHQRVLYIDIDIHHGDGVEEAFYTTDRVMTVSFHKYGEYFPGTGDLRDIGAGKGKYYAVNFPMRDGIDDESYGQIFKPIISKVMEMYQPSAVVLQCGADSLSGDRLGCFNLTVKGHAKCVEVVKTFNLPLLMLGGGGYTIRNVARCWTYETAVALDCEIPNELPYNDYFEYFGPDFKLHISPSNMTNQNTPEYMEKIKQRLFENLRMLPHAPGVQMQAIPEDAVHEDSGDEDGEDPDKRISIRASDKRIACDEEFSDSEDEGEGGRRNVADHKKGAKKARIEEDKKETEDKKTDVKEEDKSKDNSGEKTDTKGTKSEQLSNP

Histone deacetylase 3 = Histone deacetylase 3 (Homo sapiens, UniProt O15379)
Histone deacetylase 3, sequence (O15379 whole entry): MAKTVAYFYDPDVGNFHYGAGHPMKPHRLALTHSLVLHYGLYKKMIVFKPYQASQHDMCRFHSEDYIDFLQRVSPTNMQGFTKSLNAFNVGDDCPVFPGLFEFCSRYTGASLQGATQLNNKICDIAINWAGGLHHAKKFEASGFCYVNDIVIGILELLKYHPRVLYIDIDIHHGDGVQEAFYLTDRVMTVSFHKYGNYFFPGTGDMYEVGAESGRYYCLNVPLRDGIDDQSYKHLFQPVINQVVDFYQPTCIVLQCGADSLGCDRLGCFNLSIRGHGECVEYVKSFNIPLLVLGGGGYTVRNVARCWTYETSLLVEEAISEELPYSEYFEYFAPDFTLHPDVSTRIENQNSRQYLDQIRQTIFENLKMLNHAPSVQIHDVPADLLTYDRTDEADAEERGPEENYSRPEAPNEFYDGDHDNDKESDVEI
Description: Inhibition of HDAC3 (unknown origin)

Histone deacetylase 4 = Histone deacetylase 4 (Homo sapiens, UniProt P56524)
Histone deacetylase 4, sequence (P56524 whole entry): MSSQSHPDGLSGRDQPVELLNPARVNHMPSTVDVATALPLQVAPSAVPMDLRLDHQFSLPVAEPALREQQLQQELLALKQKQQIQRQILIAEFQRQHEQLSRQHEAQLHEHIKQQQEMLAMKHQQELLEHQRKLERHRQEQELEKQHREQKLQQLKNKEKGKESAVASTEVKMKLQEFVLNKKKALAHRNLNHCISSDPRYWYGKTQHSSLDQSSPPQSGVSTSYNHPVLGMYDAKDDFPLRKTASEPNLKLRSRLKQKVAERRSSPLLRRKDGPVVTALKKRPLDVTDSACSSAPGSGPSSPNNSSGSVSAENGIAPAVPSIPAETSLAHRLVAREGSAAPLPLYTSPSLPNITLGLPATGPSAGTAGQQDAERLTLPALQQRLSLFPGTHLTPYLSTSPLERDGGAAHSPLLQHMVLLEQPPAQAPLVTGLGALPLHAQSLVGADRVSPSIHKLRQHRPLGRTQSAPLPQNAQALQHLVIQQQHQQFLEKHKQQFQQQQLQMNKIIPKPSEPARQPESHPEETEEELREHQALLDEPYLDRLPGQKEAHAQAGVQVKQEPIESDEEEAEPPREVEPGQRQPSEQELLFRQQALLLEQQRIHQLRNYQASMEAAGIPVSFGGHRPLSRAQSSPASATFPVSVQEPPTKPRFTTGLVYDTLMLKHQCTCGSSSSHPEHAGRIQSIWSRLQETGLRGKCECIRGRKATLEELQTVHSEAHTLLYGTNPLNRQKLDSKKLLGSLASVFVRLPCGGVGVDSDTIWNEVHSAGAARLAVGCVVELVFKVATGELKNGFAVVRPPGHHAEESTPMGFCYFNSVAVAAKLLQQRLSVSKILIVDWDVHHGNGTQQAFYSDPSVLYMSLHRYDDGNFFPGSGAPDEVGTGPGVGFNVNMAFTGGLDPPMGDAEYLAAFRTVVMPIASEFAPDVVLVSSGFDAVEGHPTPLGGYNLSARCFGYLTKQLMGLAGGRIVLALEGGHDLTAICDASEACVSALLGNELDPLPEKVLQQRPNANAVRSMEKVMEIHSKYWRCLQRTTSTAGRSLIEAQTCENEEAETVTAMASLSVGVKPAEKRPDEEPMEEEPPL
Description: Inhibition of HDAC4 (unknown origin)

Histone deacetylase 5 = Histone deacetylase 5 (Homo sapiens, UniProt Q9UQL6)
Histone deacetylase 5, sequence (Q9UQL6 whole entry): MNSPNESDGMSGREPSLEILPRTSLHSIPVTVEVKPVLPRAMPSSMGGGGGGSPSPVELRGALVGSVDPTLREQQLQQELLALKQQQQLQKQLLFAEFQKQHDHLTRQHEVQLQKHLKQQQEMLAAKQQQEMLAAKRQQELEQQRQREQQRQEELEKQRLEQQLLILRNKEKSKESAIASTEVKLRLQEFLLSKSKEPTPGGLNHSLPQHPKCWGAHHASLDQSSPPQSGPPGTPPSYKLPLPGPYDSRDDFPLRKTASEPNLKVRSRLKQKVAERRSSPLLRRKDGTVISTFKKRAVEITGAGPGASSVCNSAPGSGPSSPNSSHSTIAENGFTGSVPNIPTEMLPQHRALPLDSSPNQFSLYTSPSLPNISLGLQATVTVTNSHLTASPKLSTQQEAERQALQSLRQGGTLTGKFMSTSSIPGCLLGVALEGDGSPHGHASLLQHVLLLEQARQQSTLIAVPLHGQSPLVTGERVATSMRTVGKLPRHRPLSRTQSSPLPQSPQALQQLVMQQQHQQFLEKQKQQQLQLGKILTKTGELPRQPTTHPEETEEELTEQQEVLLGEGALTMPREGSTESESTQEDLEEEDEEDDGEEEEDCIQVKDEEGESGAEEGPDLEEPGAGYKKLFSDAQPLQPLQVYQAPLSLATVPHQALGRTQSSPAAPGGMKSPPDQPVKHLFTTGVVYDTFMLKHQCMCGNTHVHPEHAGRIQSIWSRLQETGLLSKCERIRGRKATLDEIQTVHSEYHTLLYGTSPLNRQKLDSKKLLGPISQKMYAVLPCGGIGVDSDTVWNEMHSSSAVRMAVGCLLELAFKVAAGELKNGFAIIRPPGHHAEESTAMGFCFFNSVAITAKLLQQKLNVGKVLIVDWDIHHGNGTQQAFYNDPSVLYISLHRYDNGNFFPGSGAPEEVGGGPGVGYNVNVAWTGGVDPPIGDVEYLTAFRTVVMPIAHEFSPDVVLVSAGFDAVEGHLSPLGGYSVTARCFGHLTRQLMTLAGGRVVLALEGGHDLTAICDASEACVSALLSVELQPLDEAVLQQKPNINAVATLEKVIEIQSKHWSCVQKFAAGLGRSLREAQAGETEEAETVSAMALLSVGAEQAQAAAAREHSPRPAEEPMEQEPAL
Description: Inhibition of HDAC5 (unknown origin)

[7] = target: T1, Protein deacetylase HDAC6 (Homo sapiens, UniProt Q9UBN7)
T1 sequence (Q9UBN7 whole entry): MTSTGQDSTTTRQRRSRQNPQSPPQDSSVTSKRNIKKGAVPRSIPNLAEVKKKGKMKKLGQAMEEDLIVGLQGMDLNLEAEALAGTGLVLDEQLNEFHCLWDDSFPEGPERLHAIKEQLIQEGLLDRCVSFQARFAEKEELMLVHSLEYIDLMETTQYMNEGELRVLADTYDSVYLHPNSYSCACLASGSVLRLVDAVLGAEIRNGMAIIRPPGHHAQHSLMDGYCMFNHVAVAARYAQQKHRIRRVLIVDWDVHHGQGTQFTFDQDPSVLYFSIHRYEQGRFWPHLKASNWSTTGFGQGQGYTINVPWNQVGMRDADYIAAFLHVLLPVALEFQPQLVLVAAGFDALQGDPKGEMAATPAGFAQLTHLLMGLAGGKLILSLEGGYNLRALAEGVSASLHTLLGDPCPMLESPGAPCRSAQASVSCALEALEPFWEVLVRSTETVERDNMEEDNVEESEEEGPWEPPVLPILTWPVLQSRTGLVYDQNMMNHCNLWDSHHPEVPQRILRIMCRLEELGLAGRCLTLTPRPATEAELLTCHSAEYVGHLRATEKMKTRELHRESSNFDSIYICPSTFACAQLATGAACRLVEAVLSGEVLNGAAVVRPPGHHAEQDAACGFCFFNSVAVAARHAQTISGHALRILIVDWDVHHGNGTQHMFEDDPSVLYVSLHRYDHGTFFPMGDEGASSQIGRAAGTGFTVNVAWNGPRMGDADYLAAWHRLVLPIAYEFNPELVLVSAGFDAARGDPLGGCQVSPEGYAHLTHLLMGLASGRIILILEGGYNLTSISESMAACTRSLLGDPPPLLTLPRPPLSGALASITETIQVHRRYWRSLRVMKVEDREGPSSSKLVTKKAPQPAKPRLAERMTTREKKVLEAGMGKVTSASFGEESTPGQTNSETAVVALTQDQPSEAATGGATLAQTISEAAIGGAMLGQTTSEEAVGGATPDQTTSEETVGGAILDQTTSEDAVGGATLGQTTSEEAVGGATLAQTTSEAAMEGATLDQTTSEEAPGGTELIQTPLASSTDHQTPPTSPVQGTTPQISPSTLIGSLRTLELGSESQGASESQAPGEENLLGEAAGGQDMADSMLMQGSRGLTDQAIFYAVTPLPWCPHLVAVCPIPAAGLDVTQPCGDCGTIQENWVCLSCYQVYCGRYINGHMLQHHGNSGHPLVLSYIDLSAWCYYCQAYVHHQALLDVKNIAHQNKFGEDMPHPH
Description: Inhibition of HDAC6 (unknown origin)

Histone deacetylase 7 = target: T2, Histone deacetylase 7 (Homo sapiens, UniProt Q8WUI4)
T2 sequence (Q8WUI4 whole entry): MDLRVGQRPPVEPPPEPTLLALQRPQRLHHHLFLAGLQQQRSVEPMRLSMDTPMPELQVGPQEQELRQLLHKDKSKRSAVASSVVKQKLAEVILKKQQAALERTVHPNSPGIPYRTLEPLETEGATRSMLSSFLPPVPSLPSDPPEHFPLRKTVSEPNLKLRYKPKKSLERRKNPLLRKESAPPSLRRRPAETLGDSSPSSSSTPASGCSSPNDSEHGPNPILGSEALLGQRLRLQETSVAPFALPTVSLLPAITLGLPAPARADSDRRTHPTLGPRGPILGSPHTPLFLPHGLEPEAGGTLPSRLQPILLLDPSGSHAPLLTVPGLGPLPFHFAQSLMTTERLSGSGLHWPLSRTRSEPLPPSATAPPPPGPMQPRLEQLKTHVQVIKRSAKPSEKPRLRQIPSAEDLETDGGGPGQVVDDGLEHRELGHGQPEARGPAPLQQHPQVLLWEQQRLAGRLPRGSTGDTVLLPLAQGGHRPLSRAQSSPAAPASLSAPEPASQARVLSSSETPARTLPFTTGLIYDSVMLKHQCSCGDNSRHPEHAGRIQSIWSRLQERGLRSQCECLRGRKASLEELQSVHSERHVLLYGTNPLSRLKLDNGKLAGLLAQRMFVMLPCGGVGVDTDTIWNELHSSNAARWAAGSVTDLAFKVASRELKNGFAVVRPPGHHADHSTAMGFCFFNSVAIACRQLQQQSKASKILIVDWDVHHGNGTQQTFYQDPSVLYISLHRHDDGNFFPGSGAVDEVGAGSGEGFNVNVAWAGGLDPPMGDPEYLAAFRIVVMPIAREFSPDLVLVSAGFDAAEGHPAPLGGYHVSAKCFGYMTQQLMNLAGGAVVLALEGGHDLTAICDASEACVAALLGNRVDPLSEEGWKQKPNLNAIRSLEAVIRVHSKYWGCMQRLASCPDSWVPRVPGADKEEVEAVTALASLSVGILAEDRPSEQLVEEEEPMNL
Description: Inhibition of HDAC7 (unknown origin)

Histone deacetylase 8 = target: T3, Histone deacetylase 8 (Homo sapiens, UniProt Q9BY41)
T3 sequence (Q9BY41 whole entry): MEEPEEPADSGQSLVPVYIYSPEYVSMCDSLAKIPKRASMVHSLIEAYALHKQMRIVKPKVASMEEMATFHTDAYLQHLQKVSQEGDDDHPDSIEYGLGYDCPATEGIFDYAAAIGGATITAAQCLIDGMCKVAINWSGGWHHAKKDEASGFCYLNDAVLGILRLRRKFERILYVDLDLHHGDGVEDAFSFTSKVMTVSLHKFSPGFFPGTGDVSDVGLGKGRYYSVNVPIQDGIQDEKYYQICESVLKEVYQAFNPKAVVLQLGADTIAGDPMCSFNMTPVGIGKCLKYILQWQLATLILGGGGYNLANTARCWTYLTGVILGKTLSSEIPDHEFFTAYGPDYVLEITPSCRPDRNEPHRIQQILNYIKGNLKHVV
Description: Inhibition of HDAC8 (unknown origin)

Histone deacetylase 9 = Histone deacetylase 9 (Homo sapiens, UniProt Q9UKV0)
Histone deacetylase 9, sequence (Q9UKV0 whole entry): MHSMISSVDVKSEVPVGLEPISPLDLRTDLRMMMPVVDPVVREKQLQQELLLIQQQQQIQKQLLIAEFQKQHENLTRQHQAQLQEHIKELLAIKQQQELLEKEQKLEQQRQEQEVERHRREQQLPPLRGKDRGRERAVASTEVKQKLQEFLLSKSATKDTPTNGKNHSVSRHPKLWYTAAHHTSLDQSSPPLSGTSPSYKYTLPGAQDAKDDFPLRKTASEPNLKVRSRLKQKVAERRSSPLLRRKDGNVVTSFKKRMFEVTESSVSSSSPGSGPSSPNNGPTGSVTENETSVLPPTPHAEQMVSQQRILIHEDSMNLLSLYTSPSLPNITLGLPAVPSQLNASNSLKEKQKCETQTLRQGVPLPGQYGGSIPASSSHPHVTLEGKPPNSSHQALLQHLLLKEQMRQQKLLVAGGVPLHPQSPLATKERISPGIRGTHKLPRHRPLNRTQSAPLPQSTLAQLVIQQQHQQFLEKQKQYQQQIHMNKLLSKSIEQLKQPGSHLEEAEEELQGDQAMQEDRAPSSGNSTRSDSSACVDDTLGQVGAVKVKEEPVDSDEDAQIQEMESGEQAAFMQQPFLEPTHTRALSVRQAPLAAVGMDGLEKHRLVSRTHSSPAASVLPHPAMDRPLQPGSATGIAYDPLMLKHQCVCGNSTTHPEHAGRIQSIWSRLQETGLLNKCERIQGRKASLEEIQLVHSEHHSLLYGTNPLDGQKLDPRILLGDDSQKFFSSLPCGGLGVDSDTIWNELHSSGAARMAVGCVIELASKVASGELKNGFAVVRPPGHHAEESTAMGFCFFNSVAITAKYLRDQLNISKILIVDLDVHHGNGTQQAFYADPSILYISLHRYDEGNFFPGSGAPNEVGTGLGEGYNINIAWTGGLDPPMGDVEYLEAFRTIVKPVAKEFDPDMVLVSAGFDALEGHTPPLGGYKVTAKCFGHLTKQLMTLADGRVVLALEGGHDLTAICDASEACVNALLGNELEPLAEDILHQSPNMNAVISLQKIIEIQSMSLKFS
Description: Inhibition of HDAC9 (unknown origin)

[8] = target: T4, Polyamine deacetylase HDAC10 (Homo sapiens, UniProt Q969S8)
T4 sequence (Q969S8 whole entry): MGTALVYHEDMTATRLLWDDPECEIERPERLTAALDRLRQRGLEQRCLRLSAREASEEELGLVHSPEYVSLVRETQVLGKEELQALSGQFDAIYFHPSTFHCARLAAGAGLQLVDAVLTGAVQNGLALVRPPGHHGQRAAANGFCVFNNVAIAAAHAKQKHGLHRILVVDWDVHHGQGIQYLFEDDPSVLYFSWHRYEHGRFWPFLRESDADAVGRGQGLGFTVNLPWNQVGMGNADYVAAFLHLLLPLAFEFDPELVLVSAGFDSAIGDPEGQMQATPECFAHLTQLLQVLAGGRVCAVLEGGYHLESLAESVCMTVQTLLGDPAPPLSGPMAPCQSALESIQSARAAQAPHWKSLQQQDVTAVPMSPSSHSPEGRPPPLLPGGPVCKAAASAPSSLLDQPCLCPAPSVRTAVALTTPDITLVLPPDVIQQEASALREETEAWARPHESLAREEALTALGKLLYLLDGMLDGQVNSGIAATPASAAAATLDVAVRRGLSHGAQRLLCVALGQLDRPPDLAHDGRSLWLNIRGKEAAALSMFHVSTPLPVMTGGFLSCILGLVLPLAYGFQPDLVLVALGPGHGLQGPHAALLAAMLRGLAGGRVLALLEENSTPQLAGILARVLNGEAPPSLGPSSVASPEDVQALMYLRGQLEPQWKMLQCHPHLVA
Description: Inhibition of HDAC10 (unknown origin)

Histone deacetylase 11 = target: T5, Histone deacetylase 11 (Homo sapiens, UniProt Q96DB2)
T5 sequence (Q96DB2 whole entry): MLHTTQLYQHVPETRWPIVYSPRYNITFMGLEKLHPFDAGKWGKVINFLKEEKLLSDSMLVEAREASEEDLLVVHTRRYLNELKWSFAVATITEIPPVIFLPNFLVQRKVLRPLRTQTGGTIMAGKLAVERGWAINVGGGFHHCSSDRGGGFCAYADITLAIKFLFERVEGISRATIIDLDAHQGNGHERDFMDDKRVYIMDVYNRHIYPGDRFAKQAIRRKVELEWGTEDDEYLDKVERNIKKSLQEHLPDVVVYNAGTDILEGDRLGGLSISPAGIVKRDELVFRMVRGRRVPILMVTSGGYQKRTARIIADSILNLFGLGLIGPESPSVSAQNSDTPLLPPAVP
Description: Inhibition of HDAC11 (unknown origin)

PC-3 [9] = assay: Antiproliferative activity against human PC-3 cells incubated for 24 hrs in presence of SAHA by MTT assay; format: functional, cell-based; conditions: PC-3, 24 h
NCI-H2228 [10] = assay: Antiproliferative activity against human NCI-H2228 cells incubated for 24 hrs in presence of SAHA by MTT assay; format: functional, cell-based; conditions: NCI-H2228, 24 h
Huh-7 [11] = assay: Antiproliferative activity against human Huh-7 cells incubated for 24 hrs in presence of SAHA by MTT assay; format: functional, cell-based; conditions: Huh-7, 24 h
HCT-116 [12] = assay: cells; conditions: Homo sapiens, HCT-116, 24 h
Description: Antiproliferative activity against human HCT-116 cells incubated for 24 hrs in presence of SAHA by MTT assay

MCF7 [13] = assay: cells; conditions: Homo sapiens, MCF7, 24 h
Description: Antiproliferative activity against human MCF7 cells incubated for 24 hrs in presence of SAHA by MTT assay

MDA-MB-231 [14] = assay: cells; conditions: Homo sapiens, MDA-MB-231, 24 h
Description: Antiproliferative activity against human MDA-MB-231 cells incubated for 24 hrs in presence of SAHA by MTT assay

Histone deacetylase 1, sequence (Q13547 whole entry): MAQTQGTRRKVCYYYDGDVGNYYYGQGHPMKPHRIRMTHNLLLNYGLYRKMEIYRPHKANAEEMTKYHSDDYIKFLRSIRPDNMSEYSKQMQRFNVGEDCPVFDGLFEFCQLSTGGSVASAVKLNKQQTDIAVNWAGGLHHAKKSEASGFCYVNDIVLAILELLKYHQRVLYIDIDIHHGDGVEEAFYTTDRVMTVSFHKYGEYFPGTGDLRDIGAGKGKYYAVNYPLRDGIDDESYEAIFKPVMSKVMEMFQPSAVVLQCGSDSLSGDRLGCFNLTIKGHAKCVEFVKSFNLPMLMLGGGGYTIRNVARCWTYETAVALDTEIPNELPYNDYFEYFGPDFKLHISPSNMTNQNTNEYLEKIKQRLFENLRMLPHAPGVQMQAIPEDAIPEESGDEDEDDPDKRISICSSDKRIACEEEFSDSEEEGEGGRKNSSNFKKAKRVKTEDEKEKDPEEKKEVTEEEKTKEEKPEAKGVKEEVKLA

SMILES | IC50 (Histone deacetylase 1) | IC50 (PC-3 [1]) | IC50 (HCT-116 [2]) | IC50 (NCI-H2228 [3]) | IC50 (Huh-7 [4]) | IC50 (MCF7 [5]) | IC50 (MDA-MB-231 [6]) | further results
CCCNNC(=O)CCCCCn1c2cc3c(cc2c2[nH]c(=O)c4ccccc4c21)OCO3 | 500 nM | 4600 nM | 2880 nM | 2840 nM | > 8000 nM | > 8000 nM | 5910 nM | –
CCCNNC(=O)CCCCn1c2cc3c(cc2c2[nH]c(=O)c4ccccc4c21)OCO3 | 640 nM | 930 nM | 1310 nM | 1170 nM | 2740 nM | 1270 nM | 2620 nM | –
O=C(CCCCCCn1c2cc3c(cc2c2ncc4ccccc4c21)OCO3)NO | – | – | – | – | – | – | – | IC50 (Histone deacetylase 2): 3 nM; IC50 (Histone deacetylase 3): 3 nM; IC50 (Histone deacetylase 4): > 5000 nM; IC50 (Histone deacetylase 5): > 5000 nM; IC50 [7]: 4 nM; IC50 (Histone deacetylase 7): > 5000 nM; IC50 (Histone deacetylase 8): > 1000 nM; IC50 (Histone deacetylase 9): > 5000 nM; IC50 [8]: 6 nM; IC50 (Histone deacetylase 11): > 5000 nM
CCNNC(=O)CCCCn1c2cc3c(cc2c2[nH]c(=O)c4ccccc4c21)OCO3 | 1650 nM | 3560 nM | 3190 nM | 2390 nM | 7410 nM | 4080 nM | > 8000 nM | –
CCCNNC(=O)CCCCCCCn1c2cc3c(cc2c2[nH]c(=O)c4ccccc4c21)OCO3 | 1720 nM | > 8000 nM | > 8000 nM | > 8000 nM | > 8000 nM | > 8000 nM | > 8000 nM | –
COc1cc([C@@H]2c3cc4c(cc3[C@@H](O[C@@H]3O[C@@H]5CO[C@@H](C)O[C@H]5[C@H](O)[C@H]3O)[C@H]3COC(=O)[C@H]23)OCO4)cc(OC)c1O [ETOPOSIDE] | – | – | – | – | – | – | 2870 nM | IC50 (PC-3 [9]): 650 nM; IC50 (NCI-H2228 [10]): 840 nM; IC50 (Huh-7 [11]): 810 nM; IC50 (HCT-116 [12]): 950 nM; IC50 (MCF7 [13]): 640 nM; IC50 (MDA-MB-231 [14]): 1010 nM
O=C(CCCCCCCn1c2cc3c(cc2c2ncc4ccccc4c21)OCO3)NO | < 2 nM | 2500 nM | 2680 nM | 4600 nM | 6590 nM | > 8000 nM | 2220 nM | –
CCCNNC(=O)c1ccc(Cn2c3cc4c(cc3c3[nH]c(=O)c5ccccc5c32)OCO4)cc1 | 1090 nM | 1530 nM | 1500 nM | 2170 nM | 6280 nM | 1970 nM | 4450 nM | –
CCCNNC(=O)CCCCCCn1c2cc3c(cc2c2ncc4ccccc4c21)OCO3 | 130 nM | > 8000 nM | > 8000 nM | > 8000 nM | > 8000 nM | > 8000 nM | > 8000 nM | –
CCCCNNC(=O)CCCCn1c2cc3c(cc2c2[nH]c(=O)c4ccccc4c21)OCO3 | 3320 nM | 3240 nM | 3520 nM | 2170 nM | 6490 nM | 4110 nM | 4330 nM | –
